Data from US20220401439A1, “INTRANASAL PHARMACEUTICAL COMPOSITIONS OF CGRP INHIBITORS” (Biohaven Pharmaceutical Holding Company Ltd., priority 2019, published 2022).

Columns and labels:
[1] = pH-solubility profile of drug substance; format: physicochemical; conditions: pH = 8.2; mono-hydrochloride salt form
[2] = pKa of drug substance; format: physicochemical; conditions: mono-hydrochloride salt form
[3] = clinical; conditions: human, in vivo; for AUC(0-inf): AUC[0-inf] (ng · h/mL) GM; for AUC(0-t): AUC[0-t] (ng · h/mL) GM; for Cmax: Cmax (ng/mL) GM
Source text: BHV3500-101 is a completed Phase 1, single-center, placebo-controlled, randomized, double-blind, sequential SAD study. This study consisted of up to 11 cohorts.
In total, 41 subjects were included in the PK analyses.

[4] = Phase 1 multiple ascending dose (MAD) study, intranasal, pharmacokinetics; design: species or system human; conditions: in vivo
Protocol: A Phase 1, single-center, randomized, double-blind, placebo-controlled, sequential multiple ascending dose (MAD) study with 2 alternate dosing arms was conducted. […] The MAD portion of the study consists of 4 cohorts, with a maximum dose of 20 mg administered once daily for up to 14 days in 3 cohorts, and 20 mg administered twice daily for up to 8 days in the fourth cohort.
In addition to the 4 MAD cohorts, there were 2 alternate dosing cohorts, each consisting of 1 day dosing. The first alternate dosing cohort assessed the effect of 2 sequential administrations of 20 mg (20 mg spray [100 μL of 200 mg/mL] in alternate nostrils); with a 30 minute interval between administrations. A 2nd alternate dosing cohort assessed the effect of 2 sequential administrations of 20 mg (20 mg spray [100 μL of 200 mg/mL] in alternate nostrils); with a nose blow and 5 minute interval between administrations.
The PK data were collected from subjects in Cohorts 1 to 4.

[5] = Phase 2/3 trial BHV3500-201 (Study 201), safety, adverse events and liver function tests; format: in vivo, human
Source text: The majority (>80%) of AEs were mild in intensity.

[6] = human, inhaled or intranasal, 5 mg
[7] = human, inhaled or intranasal, 10 mg
[8] = human, inhaled or intranasal, 20 mg

For `Cc1cc(C[C@@H](NC(=O)N2CCC(c3cc4ccccc4[nH]c3=O)CC2)C(=O)N2CCN(C3CCN(C)CC3)CC2)cc2cn[nH]c12` [Zavegepant, (R)—N-(3-(7-methyl-1H-indazol-5-yl)-1-(4-(1-methylpiperidin-4-yl)piperazin-1-yl)-1-oxopropan-2-yl)-4-(2-oxo-1,2-dihydroquinolin-3-yl)piperidine-1-carboxamide], which pH-solubility profile [1] is on record?
Its pH-solubility profile is 105 mg/mL at pH = 8.2.

And the pKa [2]?
The pKa was 4.8.

And the “median Tmax, range across doses” value [3]?
Its value is 32.4 to 46.2 min.

What about the “median t1/2, range across doses” value [3] of the same compound?
Its value is 150 to 264 min.

And the AUC(0-inf) ([3]; inhaled or intranasal, 1 mg)?
The AUC(0-inf) was 3.5 ng·h/mL.

What about the AUC(0-t) ([3]; inhaled or intranasal, 1 mg) of the same compound?
Its AUC(0-t) is 2.34 ng·h/mL.

And the Cmax ([3]; inhaled or intranasal, 1 mg)?
The Cmax was 1.34 ng/mL.

And the Tmax ([3]; inhaled or intranasal, 1 mg, Tmax (h) Median)?
The Tmax was 57.6 min.

And the half-life ([3]; inhaled or intranasal, 1 mg, t1/2 el (h) Median)?
Its half-life is 98.4 min.

And the AUC(0-inf) ([3]; inhaled or intranasal, 3 mg)?
The AUC(0-inf) was 9.75 ng·h/mL.

What about the AUC(0-t) ([3]; inhaled or intranasal, 3 mg) of the same compound?
The AUC(0-t) was 7.85 ng·h/mL.

What about the Cmax ([3]; inhaled or intranasal, 3 mg) of the same compound?
The Cmax was 3.68 ng/mL.

And the Tmax ([3]; inhaled or intranasal, 3 mg, Tmax (h) Median)?
The Tmax was 46.8 min.

And the half-life ([3]; inhaled or intranasal, 3 mg, t1/2 el (h) Median)?
Its half-life is 134 min.

What about the AUC(0-inf) ([3]; inhaled or intranasal, 5 mg) of the same compound?
The AUC(0-inf) was 20.9 ng·h/mL.

And the AUC(0-t) ([3]; inhaled or intranasal, 5 mg)?
The AUC(0-t) was 18.8 ng·h/mL.

What about the Cmax ([3]; inhaled or intranasal, 5 mg) of the same compound?
Its Cmax is 7.8 ng/mL.

And the Tmax ([3]; inhaled or intranasal, 5 mg, Tmax (h) Median)?
The Tmax was 36 min.

And the half-life ([3]; inhaled or intranasal, 5 mg, t1/2 el (h) Median)?
Its half-life is 142 min.

And the “Tmax (h) Median” value ([3]; inhaled or intranasal, 10 mg)?
Its value is 0.54 h.

And the AUC(0-inf) ([3]; inhaled or intranasal, 10 mg)?
Its AUC(0-inf) is 28.5 ng·h/mL.

What about the AUC(0-t) ([3]; inhaled or intranasal, 10 mg) of the same compound?
Its AUC(0-t) is 26.2 ng·h/mL.

And the Cmax ([3]; inhaled or intranasal, 10 mg)?
Its Cmax is 13.4 ng/mL.

And the Tmax ([3]; inhaled or intranasal, 10 mg, Tmax (h) Median)?
The Tmax was 32.4 min.

What about the half-life ([3]; inhaled or intranasal, 10 mg, t1/2 el (h) Median) of the same compound?
Its half-life is 175 min.

And the Tmax ([3]; inhaled or intranasal, Tmax (h) Median)?
The Tmax was 46.2 min.

And the half-life ([3]; inhaled or intranasal, t1/2 el (h) Median)?
Its half-life is 143 min.

What about the Tmax ([3]; median Tmax, range across doses) of the same compound?
The Tmax was 32.4 to 57.6 min.

What about the half-life ([3]; median t1/2, range across doses) of the same compound?
The half-life was 96 to 282 min.

What about the half-life ([4]; human, 20 mg) of the same compound?
The half-life was 3.69 to 4.93 h.

What about the Tmax ([4]; human, Tmax) of the same compound?
The Tmax was ~30 min.

And the AUC [4, 6]?
Its AUC is 20.7 ng·h/mL.

What about the “AUC0-24 (ng*h/mL) geometric mean” value [4, 6] of the same compound?
Its value is 24.95 ng·h/mL.

What about the “AUC0-τ ss (ng*h/mL) geometric mean” value [4, 6] of the same compound?
The value was 20.66 ng·h/mL.

What about the AUC(0-inf) [4, 6] of the same compound?
Its AUC(0-inf) is 22.4 ng·h/mL.

And the “Cl/F (L/h) Mean” value [4, 6]?
The value was 293.27 L/h.

What about the “Tmax (h) Mean” value [4, 6] of the same compound?
Its value is 0.52 h.

And the Vd/F [4, 6]?
The Vd/F was 1570 L.

And the half-life [4, 6]?
Its half-life is 3.69 h.

And the AUC(0-t) ([4]; human, inhaled or intranasal, 5 mg, AUC0-24 (ng*h/mL) geometric mean)?
Its AUC(0-t) is 24.9 ng·h/mL.

And the AUC(0-t) ([4]; human, inhaled or intranasal, 5 mg, AUC0-t (ng*h/mL) geometric mean)?
The AUC(0-t) was 19 ng·h/mL.

And the Tmax ([4]; human, inhaled or intranasal, 5 mg, Tmax (h) Mean)?
The Tmax was 31.2 min.

And the AUC [4, 7]?
Its AUC is 32.9 ng·h/mL.

And the “AUC0-24 (ng*h/mL) geometric mean” value [4, 7]?
The value was 29.61 ng·h/mL.

What about the “AUC0-τ ss (ng*h/mL) geometric mean” value [4, 7] of the same compound?
Its value is 32.85 ng·h/mL.

And the AUC(0-inf) [4, 7]?
Its AUC(0-inf) is 33.9 ng·h/mL.

And the “Cl/F (L/h) Mean” value [4, 7]?
The value was 341.09 L/h.

And the “Tmax (h) Mean” value [4, 7]?
The value was 0.57 h.

What about the Vd/F [4, 7] of the same compound?
The Vd/F was 1660 L.

And the half-life [4, 7]?
The half-life was 3.84 h.

And the AUC(0-t) ([4]; human, inhaled or intranasal, 10 mg, AUC0-24 (ng*h/mL) geometric mean)?
Its AUC(0-t) is 29.6 ng·h/mL.

What about the AUC(0-t) ([4]; human, inhaled or intranasal, 10 mg, AUC0-t (ng*h/mL) geometric mean) of the same compound?
The AUC(0-t) was 30.9 ng·h/mL.

What about the Tmax ([4]; human, inhaled or intranasal, 10 mg, Tmax (h) Mean) of the same compound?
The Tmax was 26.4 min.

And the AUC [4, 8]?
Its AUC is 91 ng·h/mL.

What about the “AUC0-24 (ng*h/mL) geometric mean” value [4, 8] of the same compound?
Its value is 80.09 ng·h/mL.

And the “AUC0-τ ss (ng*h/mL) geometric mean” value [4, 8]?
The value was 90.98 ng·h/mL.

And the AUC(0-inf) [4, 8]?
Its AUC(0-inf) is 92.4 ng·h/mL.

And the “Cl/F (L/h) Mean” value [4, 8]?
The value was 254.40 L/h.

And the “Tmax (h) Mean” value [4, 8]?
The value was 0.56 h.

What about the Vd/F [4, 8] of the same compound?
The Vd/F was 1740 L.

What about the AUC(0-t) ([4]; human, inhaled or intranasal, 20 mg, AUC0-24 (ng*h/mL) geometric mean) of the same compound?
Its AUC(0-t) is 80.1 ng·h/mL.

And the AUC(0-t) ([4]; human, inhaled or intranasal, 20 mg, AUC0-t (ng*h/mL) geometric mean)?
The AUC(0-t) was 87.9 ng·h/mL.

And the Cmax ([4]; human, inhaled or intranasal, 20 mg, Cmax (ng/mL) geometric mean)?
The Cmax was 34.7 ng/mL.

And the Tmax ([4]; human, inhaled or intranasal, 20 mg, Tmax (h) Mean)?
The Tmax was 34.2 min.

What about the half-life ([4]; human, inhaled or intranasal, 20 mg once daily intranasal (Cohort 3), Day 14, read-out: T1/2 el (h) Mean (converted)) of the same compound?
Its half-life is 4.93 h.

What about the concentration at 0.5 h ([4]; human, 5 mg, Day 14, nominal time 0.500 h, read-out: Plasma Concentrations (ng/mL) Mean) of the same compound?
The concentration at 0.5 h was 8.08 ng/mL.

What about the urine concentrations [4] of the same compound?
The urine concentrations was “below the limit of quantitation”.

And the “ALT or AST > 3 × ULN (subjects)” value ([5]; 5 mg (N = 388))?
Its value is 0.

And the “Bilirubin > 2 × ULN (subjects)” value ([5]; 5 mg (N = 388))?
Its value is 0.

What about the “ALT or AST > 3 × ULN (subjects)” value ([5]; 10 mg (N = 394)) of the same compound?
Its value is 0.

And the “Bilirubin > 2 × ULN (subjects)” value ([5]; 10 mg (N = 394))?
The value was 0.

What about the “ALT or AST > 3 × ULN (subjects)” value ([5]; 20 mg (N = 403)) of the same compound?
The value was 0.

And the “Bilirubin > 2 × ULN (subjects)” value ([5]; 20 mg (N = 403))?
The value was 0.

And the “ALT or AST > 3 × ULN (subjects)” value ([5]; All zavegepant (N = 1185))?
The value was 0.

What about the “Bilirubin > 2 × ULN (subjects)” value ([5]; All zavegepant (N = 1185)) of the same compound?
Its value is 0.

What about the “hepatotoxicity signal (AST or ALT >3xULN, total bilirubin >2xULN)” value ([5]; any treatment arm) of the same compound?
Its value is “no signal of hepatoxicity”.

What about the tolerability and safety ([5]; intranasal, single dose trial) of the same compound?
The tolerability and safety was “well tolerated and safe”.

What about the “AEs mild in intensity” value ([5]; single dose trial) of the same compound?
Its value is > 80%.
